What was measured:
wild-type C. elegans = experiment: Pharyngeal pumping assay; assay type: in vivo; settings: for EC50: Caenorhabditis elegans, read-out: EC50 of the dose-dependent increase in the pharyngeal pumping rate
Protocol: (§1) Compounds at 1,000× stock concentrations (0.1–10 mM) in DMSO or an equal volume of DMSO were diluted in a suspension of E. coli OP-50 (100 µl of a 3× concentrated overnight culture in LB broth) and absorbed as a single drop onto 3.5 cm plates containing 2.5 ml of NGM agar forming a well-defined lawn of bacteria. For developmental exposures, 20–30 synchronized first larval stage C. elegans derived from alkaline hypochlorite treatment of gravid adults were applied to the preseeded plates and cultured until assay at mid-L4 stage (2 d, 20°C) or as day 1 gravid adults (3 d, 20°C). For naïve adult exposures, synchronized first larval stage animals were cultured on NGM-agar plates seeded with E. coli OP-50 for 3 d at 20°C, then transferred to assay plates, and pumping was assayed 1 to 16 h later. Comparisons between vehicle-treated and compound-treated animals were always performed between animals at the same developmental stage and same exposure time. Pharyngeal pumping was counted by live observation at 115–200× magnification using a stereo microscope and recorded at 10 s intervals using a manually controlled digital cell counter. Alternatively, C. elegans pumping was recorded for longer intervals (30–60 s) using bright-field time-lapse microscopy at 120× magnification with a 20 images per second acquisition rate. The resulting movies were analyzed manually at a playback rate of 10 images per second.
(§2) Significance was determined by one-way ANOVA applying a Dunnett's posttest when comparing multiple treatments to a single control and a Bonferroni posttest when comparing the more than two treatments against one another. For pairwise nonrepeated measured comparisons, a student's t test was used. To express data as a percentage of control, the pumping rates of compound-treated animals were divided by the mean pumping rate of the DMSO-treated wild-type animals measured in the same experiment, unless indicated otherwise. Error bars on the control samples indicate the variation around that mean, which is utilized in all statistical calculations.

Flt-3 receptor = biological target: Flt-3 receptor; design: method as in PMID 20153646; settings: cited from earlier work
tachykinin receptor-2 = tachykinin receptor-2 (Homo sapiens, UniProt P21452); experiment: Cell-based Ca flux assay (Multispan)
Sequence of tachykinin receptor-2 (P21452 whole entry): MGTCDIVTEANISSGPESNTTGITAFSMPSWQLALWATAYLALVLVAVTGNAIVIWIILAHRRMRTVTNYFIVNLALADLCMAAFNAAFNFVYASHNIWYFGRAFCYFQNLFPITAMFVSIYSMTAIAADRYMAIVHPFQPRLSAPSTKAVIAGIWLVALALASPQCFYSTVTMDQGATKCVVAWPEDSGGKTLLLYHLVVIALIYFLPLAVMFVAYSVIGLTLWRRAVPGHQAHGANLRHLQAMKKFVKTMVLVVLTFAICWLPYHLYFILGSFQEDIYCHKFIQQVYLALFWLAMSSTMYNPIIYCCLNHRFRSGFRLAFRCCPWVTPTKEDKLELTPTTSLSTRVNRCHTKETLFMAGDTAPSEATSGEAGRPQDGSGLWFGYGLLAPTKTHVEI
Protocol: (§3) Tachykinin, ghrelin, and calcium-sensing receptor activity were measured using a cell-based Ca flux assay by Multispan, Inc. (Hayward, California). Cholescystokinin A and B receptors were assayed for effects on cAMP production, and nicotinic acid receptor activity was measured in a cell-based assay of forskolin-stimulated cAMP production by Multispan, Inc. […], PP2A phosphatase activity assays were performed by CEREP (Celle l'Evescault, France) using PP2A from human erythrocytes. Phospholipase C from Bacillus cereus was assayed by CEREP, Inc. using glycero-phosphatidyl ethanolamine as a substrate, monitoring diacyl glycerol production. Radioligand binding assays for PPAR-α, γ, δ and the androgen receptor were performed by CEREP, Inc. CARNA Biosciences (Kobe, Japan) performed in vitro kinase activity assays using recombinant catalytic domains and measured phosphorylation of an Src-derived peptide for Flt-3 and phosphatidyl inositol for PI3KCA. Radioligand binding assays for the oxytocin receptor, D4 dopamine receptor, cannabinoid CB2 receptor, and angiotensin type I and II receptors were performed as described previously, as were cell-based activity assays for mGluR 1a, 2, 4, 5, 6, and 8 [60]–[62].

tachykinin receptor-3 = tachykinin receptor-3 (Homo sapiens, UniProt P29371); experiment: Cell-based Ca flux assay (Multispan)
Sequence of tachykinin receptor-3 (P29371 whole entry): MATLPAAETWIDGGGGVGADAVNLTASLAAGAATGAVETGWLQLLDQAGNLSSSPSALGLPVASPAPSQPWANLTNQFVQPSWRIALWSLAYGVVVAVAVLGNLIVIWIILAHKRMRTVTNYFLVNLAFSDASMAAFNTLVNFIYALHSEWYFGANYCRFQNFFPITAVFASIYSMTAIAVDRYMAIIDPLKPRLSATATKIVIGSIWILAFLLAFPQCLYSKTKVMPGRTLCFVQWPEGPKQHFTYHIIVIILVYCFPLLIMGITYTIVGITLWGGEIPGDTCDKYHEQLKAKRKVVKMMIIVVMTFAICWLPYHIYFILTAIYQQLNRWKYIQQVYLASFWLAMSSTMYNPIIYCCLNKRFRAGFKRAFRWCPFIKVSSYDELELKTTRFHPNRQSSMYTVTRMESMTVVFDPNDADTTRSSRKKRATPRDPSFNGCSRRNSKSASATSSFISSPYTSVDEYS
Protocol: as §3

tachykinin receptor-1 = tachykinin receptor-1 (Homo sapiens, UniProt P25103); experiment: Cell-based Ca flux assay, cells stimulated by neurokinin-1 peptide (Multispan); settings: marked with footnote d in Figure 2
Sequence of tachykinin receptor-1 (P25103 whole entry): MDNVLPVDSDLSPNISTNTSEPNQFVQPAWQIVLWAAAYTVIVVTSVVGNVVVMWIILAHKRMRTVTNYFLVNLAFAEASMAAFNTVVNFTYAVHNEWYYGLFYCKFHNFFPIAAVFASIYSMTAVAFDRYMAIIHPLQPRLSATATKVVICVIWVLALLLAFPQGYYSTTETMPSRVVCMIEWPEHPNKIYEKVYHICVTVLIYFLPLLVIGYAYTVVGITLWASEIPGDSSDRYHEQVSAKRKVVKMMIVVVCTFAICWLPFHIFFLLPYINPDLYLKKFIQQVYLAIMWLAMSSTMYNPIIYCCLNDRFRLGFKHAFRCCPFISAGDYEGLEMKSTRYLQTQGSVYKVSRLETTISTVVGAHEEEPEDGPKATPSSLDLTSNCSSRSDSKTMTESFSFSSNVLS
Protocol: as §3
Supplementary file pbio.1001712.s001.tif: Figure S1 Dose-response measurements that validate SEA predictions for GPCRs. […]

tkr-1(RNAi) C. elegans = experiment: Pharyngeal pumping assay, compound on RNAi-treated animals; assay type: in vivo
Protocol: Synchronized first larval stage C. elegans were cultured for 3 d at 20°C on a lawn of HT115 E. coli induced with IPTG to express double-stranded RNAi as described.
Compounds at 1,000× stock concentrations (0.1–10 mM) in DMSO or an equal volume of DMSO were diluted in a suspension of E. coli OP-50 (100 µl of a 3× concentrated overnight culture in LB broth) and absorbed as a single drop onto 3.5 cm plates containing 2.5 ml of NGM agar forming a well-defined lawn of bacteria. […] Pharyngeal pumping was counted by live observation at 115–200× magnification using a stereo microscope and recorded at 10 s intervals using a manually controlled digital cell counter. Alternatively, C. elegans pumping was recorded for longer intervals (30–60 s) using bright-field time-lapse microscopy at 120× magnification with a 20 images per second acquisition rate. The resulting movies were analyzed manually at a playback rate of 10 images per second.
Significance was determined by one-way ANOVA applying a Dunnett's posttest when comparing multiple treatments to a single control and a Bonferroni posttest when comparing the more than two treatments against one another. For pairwise nonrepeated measured comparisons, a student's t test was used. […]

C. elegans = test system: C. elegans; design: method as in earlier work; settings: earlier phenotypic screen ref 11; cited from earlier work
[1] = test system: gnrr-1(ok238) mutant C. elegans; experiment: Pharyngeal pumping assay, compound on high-feeding mutant; assay type: in vivo; settings: percentage of the mutant's pumping rate on DMSO; 10 µM B16, D20, K9, F15, H6; 200 nM L-371257, SB 222200; 2 µM MMPIP, 5-flurox
Protocol: as §1, §2
(§4) The pumping rates are expressed as a percentage of the mutant’s pumping rate on DMSO, the vehicle control. p-values were calculated relative to DMSO treatment of each mutant by one-way ANOVA using Dunnett’s multiple comparison test.

[2] = test system: gnrr-3(tm4152) mutant C. elegans; experiment: as above; assay type: in vivo; settings: percentage of the mutant's pumping rate on DMSO; 10 µM B16, D20, K9, F15, H6; 200 nM L-371257, SB 222200; 2 µM MMPIP, 5-flurox
Protocol: as §1, §2, §4

[3] = test system: mgl-2(tm355) mutant C. elegans; experiment: as above; assay type: in vivo; settings: percentage of the mutant's pumping rate on DMSO; 10 µM B16, D20, K9, F15, H6; 200 nM L-371257, SB 222200; 2 µM MMPIP, 5-flurox
Protocol: as §1, §2, §4

[4] = test system: ver-2(ok897) mutant C. elegans; experiment: as above; assay type: in vivo; settings: percentage of the mutant's pumping rate on DMSO; 10 µM B16, D20, K9, F15, H6; 200 nM L-371257, SB 222200; 2 µM MMPIP, 5-flurox
Protocol: as §1, §2, §4

[5] = test system: ver-3(ok891) mutant C. elegans; experiment: as above; assay type: in vivo; settings: percentage of the mutant's pumping rate on DMSO; 10 µM B16, D20, K9, F15, H6; 200 nM L-371257, SB 222200; 2 µM MMPIP, 5-flurox
Protocol: as §1, §2, §4

Oxtr = biological target: Oxtr; design: method as in PMID 7473590; settings: cited from earlier work

O=C1Nc2ccc(F)cc2/C1=C1/Nc2ccccc2C1=NO [5-flurox, 5′-fluoroindirubinoxime, reference compound]
EC50 (wild-type C. elegans): 0.04 µM
IC50 (Flt-3 receptor): 0.015 µM

COc1ccc(OC)c(-c2cc(NC(=O)c3ccccc3C(N)=O)c3ccccc3n2)c1 [H6]
Ki (tachykinin receptor-2): > 10 µM
Ki (tachykinin receptor-3): > 10 µM
Ki (tachykinin receptor-1): 1.9 µM
increase in pharyngeal pumping (wild-type C. elegans; 10 µM, cultured 3 d from L1, long-term video (60 s) and short-term manual (10 s) measurements): 7%–12%
exposure time after which the feeding elevating effect was notable (wild-type C. elegans; 10 µM, naïve day 1 gravid adults): ~16 h
effect on the pharyngeal pumping rate (wild-type C. elegans; wild-type, 10 µM versus 0.1% DMSO): increased
Pharmacological relationship (tkr-1(RNAi) C. elegans; to C. elegans tkr-1 (C38C10.1), homolog of human Tkr-1): antagonist
Nile Red staining (C. elegans): increased

COc1cc(OC2CCN(C(C)=O)CC2)ccc1C(=O)N1CCC(N2C(=O)OCc3ccccc32)CC1 [L-371257, 1-(1-[4-[(N-acetyl-4-piperidinyl)oxy]-2-methoxybenzoyl]piperidin-4-yl)-4H-3,1-benzoxazin-2(1H)-one, reference compound]
EC50 (wild-type C. elegans): 0.01 µM
pharyngeal pumping rate, mean [1]: 99.2%
pharyngeal pumping rate, mean [2]: 108.5%
pharyngeal pumping rate, mean [3]: 105.0%
pharyngeal pumping rate, mean [4]: 100.8%
pharyngeal pumping rate, mean [5]: 94.8%
pharyngeal pumping rate, mean (tkr-1(RNAi) C. elegans; percentage of the pumping rate of tkr-1(RNAi) animals on DMSO, 10 µM B16, D20, K9, F15, H6, 200 nM L-371257, SB 222200, 2 µM MMPIP, 5-flurox): 109.9%
Ki (Oxtr): 0.0046 µM

Source: article PMC3833878, “In Silico Molecular Comparisons of C. elegans and Mammalian Pharmacology Identify Distinct Targets That Regulate Feeding” (PLoS Biology, 2013)
